Test results from US6489340B1, “Macrolide compounds for inducing chondrogenic differentiation” (Fujisawa Pharmaceutical., Ltd., priority 1999, dated 2002).

Test system: ATDC5 cells
Assay: Induction of chondrogenic differentiation of ATDC5 cells (Alcian blue staining, proteoglycan amount)
Type: cell-based
Details: ATDC5 cells incubated 24 days; Alcian blue dye measured at 620 nm; FK506 1-1000 ng/ml
Procedure: The inducing activity by FK506 Substance on chondrogenic differentiation was evaluated in accordance with the below-mentioned method. (1) The ATDC5 cell line provided by RIKEN Cell Bank (Tsukuba, Japan) was grown in a 1:1 mixture of Dulbecco's modified Eagle's medium and Ham's F12 medium (Nikken Biomedical Laboratory, Kyoto, Japan) supplemented with 10 % heat-inactivated fetal bovine serum (Intergen, Purchase, N.Y.). […] (2) The above ATDC5 cells were plated in 12-multiwell plastic plate at a density of 1×10^5 cells/well in the medium. After 4 hr, the medium was replaced with fresh medium containing FK506 or Cyclosporin A (CsA), and the culture was continued for a 24 days with medium change every 2 or 3 days. Cells were fixed with methanol and stained 0.1% Alcian blue (Sigma Chemical Co., St. Louis, Mo.) dissolved in 0.1 M hydrochloric acid for 16 hr at room temperature. Cells were then rinsed three times with distilled water, and the amount of cell-associated dye was measured at 620 nm after extraction with 6 M guanidine-HCl (300 μl/well). ATDC5 cells were incubated with FK506 or CsA for 24 days and the amount of proteoglycan was assayed.

Compound | inducing activity on chondrogenic differentiation (differentiation into chondrocyte; amount of proteoglycan)
C=CC[C@@H]1/C=C(\C)C[C@H](C)C[C@H](OC)[C@H]2O[C@@](O)(C(=O)C(=O)N3CCCC[C@H]3C(=O)O[C@H](/C(C)=C/[C@@H]3CC[C@@H](O)[C@H](OC)C3)[C@H](C)[C@@H](O)CC1=O)[C@H](C)C[C@@H]2OC [FK506, 17-allyl-1,14-dihydroxy-12-[2-(4-hydroxy-3-methoxycyclohexyl) -1-methylvinyl]-23,25-dimethoxy-13,19,21,27-tetramethyl-11, 28-dioxa-4-azatricyclo [22.3.1.0^4,9]octacos-18-ene-2,3,10,16-tetraone] | induced differentiation into chondrocyte in a concentration-dependent manner
Cyclosporin A [CsA] | did not induce the differentiation
